Measured values: paper PMC7336994, “Cytotoxic compounds from the leaves and stems of the endemic Thai plant Mitrephora sirikitiae” (Pharmaceutical Biology, 2020)
Read-outs that look alike come from different tables or passages of the source.

Columns and labels:
[1] = tested on: P-388 (murine lymphocytic leukaemia); assay: SRB cytotoxicity assay, P-388 cells; type: cell-based; conditions: Mus musculus, read-out: IC50 P-388
Procedure: (§1) The methanol extracts and the isolated compounds were evaluated for their cytotoxic activities against several cell lines, including murine lymphocytic leukaemia (P-388), human oral epidermoid carcinoma (KB), human colon carcinoma (Col-2 and HT-29), human breast cancer (MCF-7), human lung carcinoma (Lu-1 and A549), rat glioma (ASK), and noncancerous human embryonic kidney cell (HEK-293) by sulforhodamine B (SRB) assay in 96-well microtiter plates (Skehan et al. [1990]). This method measures the cellular protein content of cultures in 96-well microtiter plates. The cell lines were seeded into 96-well microtiter plates and treated with the test compounds at concentrations of 0.16–20 µg/mL for 72 h, except for the P-388 cells, which were treated for 48 h. Then the cell cultures were fixed with 20% trichloroacetic acid (Merck) and stained with 0.4% SRB (Sigma-Aldrich) dissolved in 1% acetic acid (Merck) for 1 h. The cellular-protein-bound dye was extracted with 10 mM unbuffered Trisbase solution (pH 10.5) (Sigma-Aldrich) for the determination of optical density at 510 nm with a microtiter plate reader (Thermo Scientific™ Multiskan™ GO Microplate Spectrophotometer). The cytotoxic potency was expressed as median inhibition concentrations (IC50), the concentration that inhibits 50% of cell viability (µg/mL and µM). The IC50 values were determined from the nonlinear regression curve fit in GraphPad Prism software (version 5). Ellipticine (Sigma-Aldrich), a cytotoxic plant alkaloid causing topoisomerase II inhibition and DNA intercalation, was used as a positive control.

[2] = tested on: KB (human oral epidermoid carcinoma); assay: SRB cytotoxicity assay, KB cells; type: cell-based; conditions: 72 h, read-out: IC50 KB
Procedure: as §1

[3] = tested on: HT-29 (human colon carcinoma); assay: SRB cytotoxicity assay, HT-29 cells; type: cell-based; conditions: read-out: IC50 HT-29
Procedure: as §1

[4] = tested on: MCF-7 (human breast cancer); assay: SRB cytotoxicity assay, MCF-7 cells; type: cell-based; conditions: read-out: IC50 MCF-7
Procedure: as §1

[5] = tested on: A549 (human lung carcinoma); assay: SRB cytotoxicity assay, A549 cells; type: cell-based; conditions: read-out: IC50 A549
Procedure: as §1

ASK (rat glioma) = assay: SRB cytotoxicity assay, ASK cells; type: cell-based; conditions: 72 h, read-out: IC50 ASK
Procedure: as §1

[6] = tested on: Hek-293 (noncancerous human embryonic kidney cell); assay: SRB cytotoxicity assay, Hek-293 cells; type: cell-based; conditions: read-out: IC50 Hek-293
Procedure: as §1

[7] = tested on: P-388, KB, HT-29, MCF-7, A549, ASK and Hek-293 cells; assay: SRB cytotoxicity assay, panel of tested cell lines (summary statements); type: cell-based
Procedure: as §1

[8] = P388, SRB assay, 0.16–20 µg/mL, 48 h
[9] = HT-29, SRB assay, 0.16–20 µg/mL, 72 h
[10] = MCF7, SRB assay, 0.16–20 µg/mL, 72 h
[11] = A549, SRB assay, 0.16–20 µg/mL, 72 h
[12] = Homo sapiens, HEK293, 72 h, SRB assay, non-cancerous cells, 0.16–20 µg/mL, 72 h
[13] = read-out: IC50 values, range for some of the tested cells
[14] = SRB assay, non-cancerous cells, 0.16–20 µg/mL, 72 h
[15] = read-out: IC50 values, range against all tested cell lines

COc1ccc([C@@H]2Oc3c(OC)cc(CCCO)cc3[C@H]2CO)cc1OC [Compound 7, 3′,4-O-dimethylcedrusin]
IC50 [1, 8]: 25.9 ± 2.99 µM
IC50 ([2]; SRB assay, 0.16–20 µg/mL): 2.03 ± 0.11 µM
IC50 [3, 9]: 19.7 ± 1.52 µM
IC50 [4, 10]: 3.77 ± 0.05 µM
IC50 [5, 11]: 10.3 ± 2.49 µM
IC50 (ASK (rat glioma); SRB assay, 0.16–20 µg/mL): > 20 µM
IC50 [6, 12]: 8.48 ± 4.04 µM
IC50 [7, 13]: 2.03 to 19.7 µM

COc1ccc(C(=O)[C@H]2CO[C@H](c3ccc(OC)c(OC)c3)[C@H]2CO)cc1OC [Compound 3, magnone A]
IC50 [1, 8]: 8.96 ± 0.7 µM
IC50 ([2]; SRB assay, 0.16–20 µg/mL): 20.6 ± 3.88 µM
IC50 [3, 9]: 27.6 ± 3.53 µM
IC50 [4, 10]: 4.4 ± 0.1 µM
IC50 [5, 11]: 37.9 ± 5.42 µM
IC50 (ASK (rat glioma); SRB assay, 0.16–20 µg/mL): > 20 µM
IC50 [6, 12]: > 20 µM
IC50 [6, 14]: 23.2 ± 1.17 µM
IC50 [7, 13]: 2.03 to 19.7 µM

COc1cc(OC)cc(C2OCC3C(c4ccc(OC)c(OC)c4)OCC23)c1 (stereo not drawn) [Compound 8, 2-(3,4-dimethoxyphenyl)-6-(3,5-dimethoxyphenyl)-3,7-dioxabicyclo[3.3.0]octane]
IC50 [1, 8]: > 20 µM
IC50 ([2]; SRB assay, 0.16–20 µg/mL): 15.9 ± 0.36 µM
IC50 [3, 9]: > 20 µM
IC50 [4, 10]: 21.9 ± 2.96 µM
IC50 [5, 11]: > 20 µM
IC50 (ASK (rat glioma); SRB assay, 0.16–20 µg/mL): > 20 µM
IC50 [6, 12]: 16.5 ± 0.94 µM

Cc1c2ccncc2c(C)c2c1[nH]c1ccccc12 [Ellipticine, reference compound]
IC50 [1, 8]: 2.03 ± 0.08 µM
IC50 ([2]; SRB assay, 0.16–20 µg/mL): 2.36 ± 0.04 µM
IC50 [3, 9]: 2.4 ± 0.04 µM
IC50 [4, 10]: 2.15 ± 0.08 µM
IC50 [5, 11]: 2.64 ± 0.24 µM
IC50 (ASK (rat glioma); SRB assay, 0.16–20 µg/mL): 2.56 ± 0.04 µM
IC50 [6, 12]: 2.68 ± 0.08 µM

COc1ccc(C2OCC3C(c4ccc(OC)c(OC)c4)OCC23)cc1OC (single isomer, unassigned; (-)) [Compound 1, (–)-epieudesmin]
IC50 [1, 8]: > 20 µM
IC50 ([2]; SRB assay, 0.16–20 µg/mL): > 20 µM
IC50 [3, 9]: > 20 µM
IC50 [4, 10]: > 20 µM
IC50 [5, 11]: > 20 µM
IC50 (ASK (rat glioma); SRB assay, 0.16–20 µg/mL): > 20 µM
IC50 [6, 12]: > 20 µM

CC1(C(=O)O)CCCC2(C)C1CC(O)C13CC4C(CC21)C4(C)C3 (stereo not drawn) [Compound 14, ciliaric acid]
IC50 [1, 8]: > 20 µM
IC50 ([2]; SRB assay, 0.16–20 µg/mL): > 20 µM
IC50 [3, 9]: > 20 µM
IC50 [4, 10]: > 20 µM
IC50 [5, 11]: > 20 µM
IC50 (ASK (rat glioma); SRB assay, 0.16–20 µg/mL): > 20 µM
IC50 [6, 12]: > 20 µM

COc1cc(C2OCC(C(=O)c3ccc(OC)c(OC)c3)C2CO)ccc1O (stereo not drawn) [Compound 6, mitrephoran]
IC50 [1, 8]: > 20 µM
IC50 ([2]; SRB assay, 0.16–20 µg/mL): > 20 µM
IC50 [3, 9]: > 20 µM
IC50 [4, 10]: 28.63 ± 0.15 µM
IC50 [5, 11]: > 20 µM
IC50 (ASK (rat glioma); SRB assay, 0.16–20 µg/mL): > 20 µM
IC50 [6, 12]: > 20 µM
melting point: 146 to 148 °C

COc1cc(/C=C/C(=O)NCCc2ccc(O)cc2)ccc1O [Compound 9, N-trans-feruloyltyramine]
IC50 [1, 8]: > 20 µM
IC50 ([2]; SRB assay, 0.16–20 µg/mL): > 20 µM
IC50 [3, 9]: > 20 µM
IC50 [4, 10]: > 20 µM
IC50 [5, 11]: > 20 µM
IC50 (ASK (rat glioma); SRB assay, 0.16–20 µg/mL): > 20 µM
IC50 [6, 12]: > 20 µM

COc1cccc2c1C(=O)c1c(C)cc(=O)[nH]c1C2=O [Compound 15, 6-methoxymarcanine A]
IC50 [1, 8]: 9.55 ± 2.83 µM
IC50 ([2]; SRB assay, 0.16–20 µg/mL): 38.1 ± 0.52 µM
IC50 [3, 9]: 10.15 ± 0.07 µM
IC50 [4, 10]: 8.33 ± 0.63 µM
IC50 [5, 11]: 12.3 ± 0.37 µM
IC50 (ASK (rat glioma); SRB assay, 0.16–20 µg/mL): 38.7 ± 1.12 µM
IC50 [6, 12]: > 20 µM
IC50 [6, 14]: > 20 µM
IC50 ([7]; P-338, HT-29, MCF-7 and A549, read-out: IC50 values, range over four tested cell lines): 8.33 to 12.3 µM
IC50 [7, 13]: 2.03 to 19.7 µM

COc1cc2c(cc1OC)-c1c3c(cc4ccnc(c14)C2=O)OCO3 [Compound 10, dicentrinone]
IC50 ([1]; P388, 48 h): > 20 µM
IC50 [2]: > 20 µM
IC50 ([3]; HT-29, 72 h): > 20 µM
IC50 ([4]; MCF7, 72 h): 36.9 ± 1.13 µM
IC50 ([5]; A549, 72 h): > 20 µM
IC50 (ASK (rat glioma)): > 20 µM
IC50 ([6]; Homo sapiens, HEK293, 72 h): > 20 µM

COc1cc2c(cc1O)-c1cc3ccc(O)c(OC)c3c[n+]1CC2 [Compound 16, stepharanine]
IC50 ([1]; P388, 48 h): > 20 µM
IC50 [2]: > 20 µM
IC50 ([3]; HT-29, 72 h): > 20 µM
IC50 ([4]; MCF7, 72 h): > 20 µM
IC50 ([5]; A549, 72 h): > 20 µM
IC50 (ASK (rat glioma)): > 20 µM
IC50 ([6]; Homo sapiens, HEK293, 72 h): > 20 µM

COc1cc(C2OCC3C(c4ccc(OC)c(OC)c4)OCC23)ccc1O (single isomer, unassigned; (-)) [Compound 2, (–)-phylligenin]
IC50 [1, 8]: 32.5 ± 2.04 µM
IC50 ([2]; SRB assay, 0.16–20 µg/mL): > 20 µM
IC50 [3, 9]: > 20 µM
IC50 [4, 10]: 36.1 ± 1.02 µM
IC50 [5, 11]: > 20 µM
IC50 (ASK (rat glioma); SRB assay, 0.16–20 µg/mL): > 20 µM
IC50 [6, 12]: > 20 µM

COc1cccc2c1-c1c3c(cc4ccnc(c14)C2=O)OCO3 [Compound 11, oxoputerine]
IC50 [1, 8]: 6.72 ± 0.36 µM
IC50 ([2]; SRB assay, 0.16–20 µg/mL): 7.67 ± 0.3 µM
IC50 [3, 9]: 7.28 ± 0.23 µM
IC50 [4, 10]: 7.05 ± 0.2 µM
IC50 [5, 11]: 7.21 ± 0.79 µM
IC50 (ASK (rat glioma); SRB assay, 0.16–20 µg/mL): 6.59 ± 0.43 µM
IC50 [6, 12]: 7.31 ± 0.07 µM
IC50 [7, 15]: 6.59 to 11 µM

O=C1c2ccccc2-c2c3c(cc4ccnc1c24)OCO3 [Compound 5, liriodenine]
IC50 ([1]; P388, 48 h): 9.6 ± 0.58 µM
IC50 [2]: 11.02 ± 0.11 µM
IC50 ([3]; HT-29, 72 h): 10.6 ± 0.36 µM
IC50 ([4]; MCF7, 72 h): 9.2 ± 0.25 µM
IC50 ([5]; A549, 72 h): 9.45 ± 0.18 µM
IC50 (ASK (rat glioma)): 10.7 ± 0.95 µM
IC50 ([6]; Homo sapiens, HEK293, 72 h): 8.07 ± 0.11 µM
IC50 [7, 15]: 6.59 to 11 µM

CCC(CCC(C)C1CCC2C3CC=C4CC(OC5OC(CO)C(O)C(O)C5O)CCC4(C)C3CCC12C)C(C)C (stereo not drawn) [Compound 4, stigma-5-en-3-O-β-glucopyranoside]
IC50 [1, 8]: > 20 µM
IC50 ([2]; SRB assay, 0.16–20 µg/mL): > 20 µM
IC50 [3, 9]: > 20 µM
IC50 [4, 10]: > 20 µM
IC50 [5, 11]: > 20 µM
IC50 (ASK (rat glioma); SRB assay, 0.16–20 µg/mL): > 20 µM
IC50 [6, 12]: > 20 µM
